In patent US6943183B2 (Pfizer Inc, priority 2000, dated 2005):

Target: T1, SF9 affinity purified rat FPT (Rattus norvegicus, UniProt Q02293+Q04631)
T1 construct: made in house; host or cells: Sf9 insect cells
Experiment: PFT (FPT) inhibitory activity assay, radiolabeled farnesyl pyrophosphate and biotinyl peptide, streptavidin beads
Assay type: biochemical
Settings: HEPES buffer pH 7.4, 30° C., 30 minutes; read-out: FTase IC50
Method: The PFT or FPT inhibitory activity of compounds of the present invention were assayed in HEPES buffer (pH 7.4) containing 5 mM potassium phosphate and 20 μM ZnCl2. The solution also contained 5 mM DTT (dithiothreitol), 5 mM MgCl2, and 0.1% PEG 8000. Assays were performed in 96 well plates (Wallec) and employed solutions composed of varying concentrations of a compound of the present invention in 10% DMSO (dimethylsulfoxide). […] After incubation at 30° C. for 30 minutes, the reaction was terminated by diluting the reaction 2.5-fold with a stop buffer containing 1.5 M magnesium acetate, 0.2 M H3PO4, 0.5% BSA (bovine serum albumin), and strepavidin beads (Amersham) at a concentration of 1.3 mg/mL. […] The assay was also carried out without 5 mM potassium phosphate.

Row | SMILES | IC50 [nM]
1 | O=C1CCCc2c1ccc(O[C@H](Cn1ccnc1)c1ccccc1)c2CCc1ccccn1 [Compound 24, 6-((1S)-2-Imidazolyl-1-phenylethoxy)-5-(2-(2-pyridyl)ethyl)-2,3,4-trihydronaphthalen-1-one] | 0.4
2 | O=C1CCCc2c1ccc(O[C@H](Cn1ccnc1)c1ccccc1)c2CCc1cccc[n+]1[O-] [Compound 25, 6-((1S)-2-Imidazolyl-1-phenylethoxy)-5-[2-(1-oxy(2-pyridyl))ethyl]-2,3,4-trihydronaphthalen-1-one] | 5
3 | O=C1CCCc2c1ccc(O[C@H](Cn1ccnc1)c1ccccc1)c2CCc1ccncc1 [Compound 26, 6-((1S)-2-Imidazolyl-1-phenylethoxy)-5-(2-(4-pyridyl)ethyl)-2,3,4-trihydronaphthalen-1-one] | 2
4 | O=C1CCCc2c1ccc(O[C@H](Cn1ccnc1)c1ccccc1)c2CCc1cc[n+]([O-])cc1 [Compound 26a] | 5
5 | O=C1CCCc2c1ccc(O[C@H](Cn1ccnc1)c1ccccc1)c2CCc1cccnc1 [Compound 26b, (S)-6-(-2-imidazol-1-yl-phenyl-ethoxy)-5-(2-pyridin-3-yl-ethyl)-3,4-dihydro-2H-naphthalen-1-one] | 0.85
6 | O=C1CCCc2c1ccc(O[C@H](Cn1ccnc1)c1ccccc1)c2CCc1cncc2ccccc12 [Compound 26c, (S)-6-(-2-Imidazol-1-yl-1-phenyl-ethoxy)-5-(2-isoquinolin-4-yl-ethyl)-3,4-dihydro-2H-naphthalen-1-one] | 0.2
7 | COC(=O)c1ccc(CCc2c(O[C@H](Cn3ccnc3)c3ccccc3)ccc3c2CCCC3=O)cc1 [Compound 27, Methyl 4-(2-[2-((1S)-2-imidazolyl-1-phenylethoxy)-5-oxo-6,7,8-trihydronaphthyl]ethyl}benzoate] | 10
8 | COC(=O)c1ccc(CCc2c(O[C@H](Cn3ccnc3)c3ccccc3)ccc3c2CCCC3=O)cc1 [Compound 28, Methyl 4-{2-[2-((1S)-2-imidazolyl-1-phenylethoxy)-5-oxo-6,7,8-trihydronaphthyl]ethyl}benzoate] | 13
9 | CNC(=O)c1ccc(CCc2c(O[C@H](Cn3ccnc3)c3ccccc3)ccc3c2CCCC3=O)cc1 [Compound 29] | 0.1
10 | O=C1CCCc2c1ccc(O[C@H](Cn1ccnc1)c1ccccc1)c2CCc1ccc(F)cc1 [Compound 30, 6-((1S)-2-Imidazolyl-1-phenylethoxy)-5-[2-(4-fluorophenyl)ethyl]-2,3,4-trihydronaphthalen-1-one] | 0.2
11 | COC(=O)CCc1c(O[C@H](Cn2ccnc2)c2ccccc2)ccc2c1CCCC2=O [Compound 31, Methyl 3-[2-((1S)-2-imidazolyl-1-phenylethoxy)-5-oxo-6,7,8-trihydronaphthyl]propanoate] | 10
12 | O=C(O)CCc1c(O[C@H](Cn2ccnc2)c2ccccc2)ccc2c1CCCC2=O [Compound 32, 3-[2-((1S)-2-Imidazolyl-1-phenylethoxy)-5-oxo-6,7,8-trihydronaphthyl]propanoic acid] | 25
13 | N#Cc1ccc(Cc2c(O[C@H](Cn3ccnc3)c3ccccc3)ccc3c2CCCC3=O)cc1 [Compound 33, 4-{[2-((1S)-2-Imidazolyl-1-phenylethoxy)-5-oxo-6,7,8-trihydronaphthyl]methyl}benzenecarbonitrile] | 4
14 | O=C1CCCc2c1ccc(O[C@H](Cn1ccnc1)c1ccccc1)c2Br [Compound 34, 6-((1S)-2-Imidazolyl-1-phenylethoxy)-5-bromo-2,3,4-trihydronaphthalen-1-one] | 25
15 | O=C1CCCc2c1ccc(O[C@H](Cn1ccnc1)c1ccccc1)c2-c1ccsc1 [Compound 35] | 15
16 | O=C1CCCc2c1ccc(O[C@H](Cn1ccnc1)c1ccccc1)c2-c1ccoc1 [Compound 36] | 7
17 | Nc1c(O[C@H](Cn2ccnc2)c2ccccc2)ccc2c1CCCC2=O [Compound 37a, 5-Amino-6-((S)-2-imidazol-1-yl-1-phenyl-ethoxy)-3,4-dihydro-2H-naphthalen-1-one] | 14
18 | O=C1CCCc2c1ccc(O[C@H](Cn1ccnc1)c1ccccc1)c2NS(=O)(=O)c1ccccc1 [Compound 38, N-[2-((S)-2-Imidazol-1-yl-1-phenyl-ethoxy)-5-oxo-5,6,7,8-tetrahydro-naphthalen-1-yl]-benzenesulfonamide] | 31
19 | O=C1CCCc2c1ccc(O[C@H](Cn1ccnc1)c1ccccc1)c2NS(=O)(=O)Cc1ccccc1 [Compound 39, N-[2-((S)-2-Imidazol-1-yl-1-phenyl-ethoxy)-5-oxo-5,6,7,8-tetrahydro-naphthalen-1-yl]-1-phenyl-methanesulfonamide] | 1
20 | O=C(Nc1c(O[C@H](Cn2ccnc2)c2ccccc2)ccc2c1CCCC2=O)c1ccccn1 [Compound 40, Pyridine-2-carboxylic acid [2-((S)-2-imidazol-1-yl-1-phenyl-ethoxy)-5-oxo-5,6,7,8-tetrahydro-naphthalen-1-yl]-amide] | 7.3
21 | CC(C)(C)OC(=O)NCc1c(O[C@H](Cn2ccnc2)c2ccccc2)ccc2c1CCCC2=O [Compound 41, [2-((S)-2-Imidazol-1-yl-1-phenyl-ethoxy)-5-oxo-5,6,7,8-tetrahydro-naphthalen-1-ylmethyl]-carbamic acid tert-butyl ester] | 14
22 | O=C1CCCc2c1ccc(O[C@H](Cn1ccnc1)c1ccccc1)c2CNS(=O)(=O)c1ccccc1 [Compound 42, N-[2-((S)-2-Imidazol-1-y-1-phenyl-71-ethoxy)-5-oxo-5,6,7,8-tetrahydro-naphthalen-1-ylmethyl]-benzenesulfonamide] | 1.5

The remaining lines, values ahead:

Row | IC50 [nM] | SMILES
23 | 38 | O=C(Cc1ccccn1)Nc1c(O[C@H](Cn2ccnc2)c2ccccc2)ccc2c1CCCC2=O [Compound 39a, N-[2-((S)-2-Imidazol-1-yl-1-phenyl-ethoxy)-5-oxo-5,6,7,8-tetrahydro-naphthalen-1-yl]-2-pyridin-2-yl-acetamide]
24 | 0.65 | O=C1CCCc2c1ccc(O[C@H](Cn1ccnc1)c1ccccc1)c2NC(=O)c1nccc2ccccc12 [Compound 40a, Isoquinoline-1-carboxylic acid [2-((S)-2-imidazol-1-yl-1-phenyl-ethoxy)-5-oxo-5,6,7,8-tetrahydro-naphthalen-1-yl]-amide]
25 | 6 | O=C(Nc1c(O[C@H](Cn2ccnc2)c2ccccc2)ccc2c1CCCC2=O)c1cc2ccccc2cn1 [Compound 40b, Isoquinioline-3-carboxylic acid [2-((S)-2-imidazol-1-yl-1-phenyl-ethoxy)-5-oxo-5,6,7,8-tetrahydro-naphthalen-1-yl]-amide]
26 | 1.2 | O=C(Nc1c(O[C@H](Cn2ccnc2)c2ccccc2)ccc2c1CCCC2=O)c1cnccn1 [Compound 40c]
27 | 9 | O=C1CCCc2c1ccc(O[C@H](Cn1ccnc1)c1ccccc1)c2NC(=O)c1ncoc1-c1ccc(Cl)cc1 [Compound 40d, 5-(4-Chloro-phenyl)-oxazole-4-carboxylic acid [2-((S)-2-imidazol-1-yl-1-phenyl-ethoxy)-5-oxo-5,6,7,8-tetrahydro-naphthalen-1-yl]-amide]
28 | 2.5 | O=C(Nc1c(O[C@H](Cn2ccnc2)c2ccccc2)ccc2c1CCCC2=O)c1cccnc1Cl [Compound 40e, N-[2-((S)-2-Imidazol-1-yl-1-phenyl-ethoxy)-5-oxo-5,6,7,8-tetrahydro-naphthalen-1-yl]-2-chloro-nicotinamide]
29 | 13 | O=C(Nc1c(O[C@H](Cn2ccnc2)c2ccccc2)ccc2c1CCCC2=O)c1cccnc1Oc1ccccc1 [Compound 40f, N-[2-((S)-2-Imidazol-1-yl-1-phenyl-ethoxy)-5-oxo-5,6,7,8-tetrahydro-naphthalen-4-1-yl]-2-phenoxy-nicotinamide]
30 | 0.8 | O=C1CCCc2c1ccc(O[C@H](Cn1ccnc1)c1ccccc1)c2NC(=O)c1cccc2cccnc12 [Compound 40g, Quinoline-8-carboxylic acid [2-((S)-2-imidazol-1-yl-1-phenyl-ethoxy)-5-oxo-5,6,7,8-tetrahydro-naphthalen-1-yl]-amide]
31 | 1.1 | COc1ccc(S(=O)(=O)NCc2c(O[C@H](Cn3ccnc3)c3ccccc3)ccc3c2CCCC3=O)cc1 [Compound 42a, N-[2-((S)-2-Imidazol-1-yl-1-phenyl-ethoxy)-5-oxo-5,6,7,8-tetrahydro-naphthalen-1-ylmethyl]-4-methoxy-benzenesulfonamide]
32 | 3.5 | O=C1CCCc2c1ccc(O[C@H](Cn1ccnc1)c1ccccc1)c2CNS(=O)(=O)c1ccc(F)cc1F [Compound 42b, 2,4-Difluoro-N-[2-((S)-2-imidazol-1-yl-1-phenyl-ethoxy)-5-oxo-5,6,7,8-tetrahydro-naphthalen-1-ylmethyl]-benzenesulfonamide; compound with trifluoro-acetic acid]
33 | 3.5 | COC(=O)c1ccccc1S(=O)(=O)NCc1c(O[C@H](Cn2ccnc2)c2ccccc2)ccc2c1CCCC2=O [Compound 42c]
34 | 2 | O=C1CCCc2c1ccc(O[C@H](Cn1ccnc1)c1ccccc1)c2CNS(=O)(=O)c1cc(Cl)sc1Cl [Compound 42d, 2,5-Dichloro-thiophene-3-sulfonic acid [2-((S)-2-imidazol-1-yl-1-phenyl-ethoxy)-5-oxo-5,6,7,8-tetrahydro-naphthalen-1-ylmethyl]-amide; compound with trifluoro-acetic acid]
35 | 1.5 | O=C1CCCc2c1ccc(O[C@H](Cn1ccnc1)c1ccccc1)c2CNS(=O)(=O)c1cccc(Cl)c1 [Compound 42e, 3-Chloro-N-[2-((S)-2-imidazol-1-yl-1-phenyl-ethoxy)-5-oxo-5,6,7,8-tetrahydro-naphthalen-1-ylmethyl]-benzenesulfonamide; compound with trifluoro-acetic acid]
